Assay results reported in US20070288088A1, “Drug eluting stent with a biodegradable release layer attached with an electro-grafted primer coating” (priority 2006, published 2007).

Columns and labels:
[1] = tested on: EC's as compared to SMC's; conditions: EC's versus SMC's; cited from earlier work
[2] = tested on: cells seeded in 96-well microplate; conditions: control samples
Procedure: A potential cytotoxicity study of the electro-grafted coatings is conducted in accordance with the standard ISO 10993-5.
The extraction was performed in triplicate with the culture medium (DMEM) containing fetal calf serum, in sterile, closed, chemically inert containers during 96 h at 37° C.
The extract and its dilutions (50% and 10%) were placed on the cells and left in contact for 24 hours, at least. The cytotoxicity was determined by a vital dye, the neutral red.
The means of determination retained were the general morphology of the cell (qualitative evaluation) and the percentage of cell viability (quantitative evaluation) based on that the absorbance obtain by reading at 540 nm, is proportional to the number of living cells (quantitative analysis).
Positive control: the control was performed for each test with a product which provided a reproducible cytotoxic effect under the conditions of the test: a solution of phenol at 3.2 g/l in culture medium (DMEM). The test complied if the percentage of mortality was about 100%.
The test complied if the percentage of cell viability is 100%.

Structure (SMILES): CC(=O)O[C@H]1C(=O)[C@@]2(C)[C@H]([C@H](OC(=O)c3ccccc3)[C@]3(O)C[C@H](OC(=O)[C@H](O)[C@@H](NC(=O)c4ccccc4)c4ccccc4)C(C)=C1C3(C)C)[C@]1(OC(C)=O)CO[C@@H]1C[C@@H]2O [Paclitaxel]
- Threshold toxic concentration [1]: comparable or even lower against EC's as compared to SMC's

Structure (SMILES): Oc1ccccc1 [Positive control, phenol]
- Death % [2]: 99%
- Qualitative evaluation (neutral red) [2]: Cells don't
- Viability % [2]: 1%

Structure (SMILES): CO[C@H]1C[C@@H]2CC[C@@H](C)[C@@](O)(O2)C(=O)C(=O)N2CCCC[C@H]2C(=O)O[C@H]([C@H](C)C[C@@H]2CC[C@@H](O)[C@H](OC)C2)CC(=O)[C@H](C)/C=C(\C)[C@@H](O)[C@@H](OC)C(=O)[C@H](C)C[C@H](C)/C=C/C=C/C=C/1C [Sirolimus]
- Threshold toxic concentration [1]: comparable or even lower against EC's as compared to SMC's
